Measured values from patent publication US20220251124A1, “3,5-BIS(PHENYL)-1H-HETEROARYL DERIVATIVES AS MEDICAMENTS” (INSTITUTE OF BIOTECHNOLOGY CAS, V.V.I., priority 2019, published 2022).
Read-outs that look alike come from different tables or passages of the source.

Legend:
Assay type in all cases: cell-based
MDA-MB-231 cells = assay: crystal violet assay, cellular viability, 48 hrs; settings: for IC50: MDA-MB-231, crystal violet, read-out: IC50
Protocol: (§1) Compound 1 and a comparative compound deferasirox (DFX) were tested in their efficacy to kill/suppress proliferation of malignant breast cancer MCF7 cells representing estrogen-dependent type of breast cancer. Briefly, 10.000 cells per well were seeded in a 96-well plate on one day and the next day the tested compounds were added and incubated with the cells for 48 hrs. The cells were then fixed with 4% paraformaldehyde, stained with 0.05% crystal violet, washed with PBS, and solubilized in 1% SDS. The absorbance of the plate at 595 nm was then measured, quantifying the number of viable cells.
Compound 1 and the comparative compound deferasirox were tested in their efficacy to kill/suppress proliferation of malignant MDA-MB-231 cancer cells representing hard to treat triple negative breast cancer. The procedure is identical to that in example 12.

leukemia cells = assay: alamarBlue viability, leukemia cells overall; settings: several leukemia cells, 48 hrs; read-out: IC50 (suppression of proliferation to 50%)
Protocol: (§2) Compound 1 and a comparative compound deferasirox (DFX) were tested in their efficacy to kill/suppress proliferation of several leukemia cells. Briefly, 10.000 cells per well were seeded in a 96-well plate on one day and the next day the tested compounds were added and incubated with the cells for 48 hrs. Cellular viability was determined as the ability to reduce the probe alamarBlue™ Cell Viability Reagent.

BxPC3 = assay: crystal violet assay, cellular viability, 48 hrs; settings: Homo sapiens, BXPC-3
Protocol: as §1
(§3) Compounds 1, 2 and the comparative compound deferasirox were tested in their efficacy to suppress proliferation/kill several malignant cell lines of breast, pancreatic and ovarian origin (MCF7, MDA-MB-231, BxPC3 and OVCAR3). The procedure is identical to that in example 12.

T47D = assay: crystal violet assay, cellular viability, 48 hrs; settings: T47D (parental/control)
Protocol: [The source words this procedure for another cell line and reports this cell line under the same test.] as §1, §3

OVCAR3 = assay: crystal violet assay, cellular viability, 48 hrs; settings: Homo sapiens, OVCAR-3
Protocol: as §1, §3

[1] = tested on: non-malignant fibroblasts (HFP1); assay: crystal violet assay, cellular viability, 48 hrs; settings: Fibroblast
Protocol: [The source words this procedure for another cell line and reports this cell line under the same test.] as §1, §3

UPF1H leukemia cell line [2] = assay: alamarBlue Cell Viability Reagent, 48 hrs; settings: 48 hrs
Protocol: as §2

UPF4D leukemia cell line [3] = assay: alamarBlue Cell Viability Reagent, 48 hrs; settings: 48 hrs, UPF4D
Protocol: as §2

[4] = tested on: UPF16A leukemia cell line; assay: alamarBlue Cell Viability Reagent, 48 hrs; settings: 48 hrs, UPF16A
Protocol: as §2

UPF9T leukemia cell line [5] = assay: alamarBlue Cell Viability Reagent, 48 hrs; settings: 48 hrs, UPF9T
Protocol: as §2

[6] = tested on: tamoxifen resistant T47D (Tam5R); assay: crystal violet assay, tamoxifen resistant cells; settings: Homo sapiens, T47D Tam5R grown in the presence of 5 μM tamoxifen
Protocol: as §1
(§4) To test whether compound 1 is active against resistant cancer cells, we used tamoxifen-resistant MCF7, T47D. The IC50 values were again measured with the crystal violet assay performed as in example 12. We have documented that there is a significant difference in the ability of compound 1 to induce cytostatic and cytotoxic effects between the parental cells sensitive to tamoxifen and the resistant ones that grow even in the presence of tamoxifen (Table 11), yet the IC50 values are still in the nM range, making this compound very efficient.

[7] = tested on: tamoxifen resistant MCF7 (Tam5R); assay: crystal violet assay, tamoxifen resistant cells; settings: MCF7 Tam5R grown in the presence of 5 μM tamoxifen
Protocol: as §1, §4

MCF7 cells = assay: crystal violet assay, cellular viability (cytostatic and cytotoxic effect), 48 hrs; settings: for IC50: MCF7 (parental/control), crystal violet, read-out: IC50
Protocol: as §1

UPF1H leukemia cell line [8] = assay: AnnexinV/PI assay, cell death induction, 48 hrs
Protocol: (§5) This effect seems to be based mainly on the cytostatic effect of compound 1. To define the ability to kill cells, cell death-inducing potency (cytotoxic efficacy) of DFX and compound 1 have been tested via annexin V/PI staining commonly used as a measure of apoptotic/necrotic cell death. Briefly, cells were seeded in 12-well plate at 100,000 per well, incubated with the selected compounds for 48 hours, then floating cells were spun, adherent cells trypsinized and spun as well followed by the staining with AnnexinV-FITC and PI probes. Cells were then washed with PBS and measured via Fluorescence Activated Sorter.
(§6) This effect seems to be based mainly on the cytostatic effect of compound 1. To define the ability to kill cells, cell death-inducing potency (cytotoxic efficacy) of DFX and compound 1 have been tested via annexin V/PI staining commonly used as a measure of apoptotic/necrotic cell death (see example 15). […] Compound 1 killed cancer cells with effects higher by almost 3 orders of magnitude than those of deferasirox. Such results are unprecedented and very unexpected.

UPF4D leukemia cell line [9] = assay: AnnexinV/PI assay, cell death induction, 48 hrs
Protocol: as §5, §6

[10] = tested on: UPF16A leukemia cell line; assay: AnnexinV/PI assay, cell death induction, 48 hrs
Protocol: as §5, §6

UPF9T leukemia cell line [11] = assay: AnnexinV/PI assay, cell death induction, 48 hrs
Protocol: as §5, §6

[12] = 1 μM, read-out: viable cells compared to non-treated controls
[13] = 3 μM, read-out: viable cells compared to non-treated controls
[14] = 30 μM, read-out: viable cells compared to non-treated controls
[15] = 100 μM, read-out: viable cells compared to non-treated controls
[16] = 500 μM, read-out: viable cells compared to non-treated controls

O=C(O)c1ccc(-n2nc(-c3ccccc3O)nc2-c2ccccc2O)cc1 [DFX, deferasirox, reference compound]
viability at 1 µM (MDA-MB-231 cells; Homo sapiens, 1 μM, MDA-MB-231, read-out: viable cells compared to non-treated controls): 109% | viability at 3 µM (MDA-MB-231 cells; Homo sapiens, 3 μM, MDA-MB-231, read-out: viable cells compared to non-treated controls): 90.8% | viability at 10 µM (MDA-MB-231 cells; Homo sapiens, 10 μM, MDA-MB-231, read-out: viable cells compared to non-treated controls): 70.4% | viability at 30 µM (MDA-MB-231 cells; Homo sapiens, 30 μM, MDA-MB-231, read-out: viable cells compared to non-treated controls): 62.1% | viability at 100 µM (MDA-MB-231 cells; Homo sapiens, 100 μM, MDA-MB-231, read-out: viable cells compared to non-treated controls): 55.7% | viability at 300 µM (MDA-MB-231 cells; Homo sapiens, 300 μM, MDA-MB-231, read-out: viable cells compared to non-treated controls): 14.1% | IC50 (MDA-MB-231 cells; Homo sapiens, MDA-MB-231, 48 h): 70 µM | IC50 (MDA-MB-231 cells): 70 µM | IC50 (leukemia cells): 5 to 80 µM | IC50 (BxPC3): 22.9 µM | IC50 (T47D; Homo sapiens, T47D, 48 h): 60.8 µM | IC50 (T47D): 60.8 µM | IC50 (OVCAR3): 19.2 µM | IC50 [1]: 37.9 µM | viability at 1 µM (UPF1H leukemia cell line [2]; [12]): 94.3% | viability at 3 µM (UPF1H leukemia cell line [2]; [13]): 88% | viability at 30 µM (UPF1H leukemia cell line [2]; [14]): 7.3% | viability at 100 µM (UPF1H leukemia cell line [2]; [15]): 13.3% | viability at 500 µM (UPF1H leukemia cell line [2]; [16]): 22.4% | IC50 (UPF1H leukemia cell line [2]; alamarBlue, read-out: IC50): 9.6 µM | viability at 1 µM (UPF4D leukemia cell line [3]; [12]): 92.7% | viability at 3 µM (UPF4D leukemia cell line [3]; [13]): 61.9% | viability at 30 µM (UPF4D leukemia cell line [3]; [14]): 2.9% | viability at 100 µM (UPF4D leukemia cell line [3]; [15]): 4% | viability at 500 µM (UPF4D leukemia cell line [3]; [16]): 11.1% | IC50 (UPF4D leukemia cell line [3]; alamarBlue, read-out: IC50): 4.92 µM | viability at 1 µM [4, 12]: 82.5% | viability at 3 µM [4, 13]: 61.3% | viability at 30 µM [4, 14]: 34.7% | viability at 100 µM [4, 15]: 10.6% | viability at 500 µM [4, 16]: 9.7% | IC50 ([4]; alamarBlue, read-out: IC50): 7.6 µM | viability at 1 µM (UPF9T leukemia cell line [5]; [12]): 90.8% | viability at 3 µM (UPF9T leukemia cell line [5]; [13]): 81.3% | viability at 30 µM (UPF9T leukemia cell line [5]; [14]): 49.2% | viability at 100 µM (UPF9T leukemia cell line [5]; [15]): 53.3% | viability at 500 µM (UPF9T leukemia cell line [5]; [16]): 39% | IC50 (UPF9T leukemia cell line [5]; alamarBlue, read-out: IC50): 80.2 µM | IC50 [6]: 82.6 µM | IC50 [7]: 15 µM | viability at 1 µM (MCF7 cells; Homo sapiens, 1 μM, MCF7, read-out: viable cells compared to non-treated controls): 104% | viability at 3 µM (MCF7 cells; Homo sapiens, 3 μM, MCF7, read-out: viable cells compared to non-treated controls): 76% | viability at 10 µM (MCF7 cells; Homo sapiens, 10 μM, MCF7, read-out: viable cells compared to non-treated controls): 56.5% | viability at 30 µM (MCF7 cells; Homo sapiens, 30 μM, MCF7, read-out: viable cells compared to non-treated controls): 23.9% | IC50 (MCF7 cells; Homo sapiens, MCF7, 48 h): 10 µM | IC50 (MCF7 cells): 10.9 µM | dead cells (AnnexinV/PI) (UPF1H leukemia cell line [8]; 1 μM): 9.9 (1.3) % | dead cells (AnnexinV/PI) (UPF1H leukemia cell line [8]; 10 μM): 95.8 (0.2) % | dead cells (AnnexinV/PI) (UPF4D leukemia cell line [9]; 1 μM): 16.9 (16.9) % | dead cells (AnnexinV/PI) (UPF4D leukemia cell line [9]; 10 μM): 77.3 (3.5) % | dead cells (AnnexinV/PI) ([10]; 1 μM): 13.7 (5.0) % | dead cells (AnnexinV/PI) ([10]; 10 μM): 48.4 (16.2) % | dead cells (AnnexinV/PI) (UPF9T leukemia cell line [11]; 1 μM): 13.7 (3.3) % | dead cells (AnnexinV/PI) (UPF9T leukemia cell line [11]; 10 μM): 46.6 (5.2) %
